Test results reported in US4987128A, “Novel 10β-alkynyl-steroids” (Roussel Uclaf, priority 1986, dated 1991).

Molecular target: T1, mineralo-corticoid receptor of the rat kidney (Rattus norvegicus, UniProt P22199)
T1 construct: The kidneys were then removed, decapsulated and homogenized at 0° C; from tissue; host or cells: kidney of adrenalectomized male Sprague-Dawley EOPS rats, 105,000 g supernatant (cytosol)
T1 sequence (P22199 1-981): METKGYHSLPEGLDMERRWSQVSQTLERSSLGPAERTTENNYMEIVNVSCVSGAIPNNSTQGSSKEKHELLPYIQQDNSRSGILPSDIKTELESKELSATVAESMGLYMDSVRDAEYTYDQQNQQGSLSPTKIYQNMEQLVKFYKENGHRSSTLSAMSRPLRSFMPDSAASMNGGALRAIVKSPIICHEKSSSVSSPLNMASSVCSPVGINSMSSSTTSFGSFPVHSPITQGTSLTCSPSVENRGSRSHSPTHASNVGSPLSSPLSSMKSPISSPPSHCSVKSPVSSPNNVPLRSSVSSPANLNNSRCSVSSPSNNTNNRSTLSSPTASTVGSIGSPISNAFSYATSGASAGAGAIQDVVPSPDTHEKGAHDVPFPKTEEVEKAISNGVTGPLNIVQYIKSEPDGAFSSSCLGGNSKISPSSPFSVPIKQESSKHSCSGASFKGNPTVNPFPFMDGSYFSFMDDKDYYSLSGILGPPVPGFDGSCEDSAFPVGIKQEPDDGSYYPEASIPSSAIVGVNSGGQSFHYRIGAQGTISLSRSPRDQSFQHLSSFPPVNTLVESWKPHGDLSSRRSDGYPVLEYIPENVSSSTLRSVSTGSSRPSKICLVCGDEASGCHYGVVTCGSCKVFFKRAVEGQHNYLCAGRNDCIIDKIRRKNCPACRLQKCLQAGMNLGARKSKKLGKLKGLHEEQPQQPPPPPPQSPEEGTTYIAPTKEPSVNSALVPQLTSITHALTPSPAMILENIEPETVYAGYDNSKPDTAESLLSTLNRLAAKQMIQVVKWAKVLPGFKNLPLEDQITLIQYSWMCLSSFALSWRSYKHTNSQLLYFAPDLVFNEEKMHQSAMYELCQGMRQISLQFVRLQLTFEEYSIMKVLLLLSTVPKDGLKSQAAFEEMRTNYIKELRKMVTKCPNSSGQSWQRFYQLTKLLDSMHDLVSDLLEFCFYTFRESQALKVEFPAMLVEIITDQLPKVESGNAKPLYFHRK
Experiment: Anti-aldosterone activity: displacement of tritiated aldosterone from the mineralo-corticoid receptor of the rat kidney (relative liaison affinity)
Type: binding
Details: vs cold aldosterone as reference hormone, rat kidney cytosol
Experimental: Study of the anti-aldosterone activity of the mineralo-corticoid receptor of the rat kidney
Male Sprague-Dawley EOPS rats weighing 140 to 160 g, suprarenalectomized 4 to 6 days earlier, were killed and their kidneys were perfused in situ with 50 ml of Tris 10 mM-saccharose 0.25M buffer, HCl pH 7.4. The kidneys were then removed, decapsulated and homogenized at 0° C. with a Potter polytetrafluoroethylene glass (1 g of tissue for 3 ml of buffer). The homogenate was centrifuged for 10 minutes at 800 g at 0° C. To eliminate the fixation of the tritiated aldosterone on the glucocorticoid receptor, 11β,17β-dihydroxy-17α-(1-propynyl)-Δ^1,4,6 -androstatrien-3-one which fixes uniquely on the glucocorticoid receptor was added to the supernatant at a final concentration of 10^-6 M. This supernatant was ultracentrifuged at 105,000 g for 60 minutes at 0° C. and aliquots of the supernatant were incubated at 0° C. with a constant concentration (T) of tritiated aldosterone in the presence of increasing concentrations (0-2500×10^-9 M) of cold aldosterone or of the cold product under study. After an incubation time (t), the concentration of tritiated aldosterone bound (B) was measured by the technique of adsorption on charcoal-dextran.
The calculation of the relative liaison affinity (RLA) was carried out as follows: The two following curves were drawn: the percentage of tritiated hormone bonded B/T as a function of the logarithm of the concentration of the cold reference hormone, and B/T as a function of the logarithm of the concentration of the cold product under test. The straight line of the equation I50 =(B/T max+B/T min)/2 was determine B/T max=percentage of the tritiated hormone bonded for an incubation of this triated hormone at the concentration (T), B/T min=percentage of the tritiated hormone bonded for an incubation of this tritiated hormone at the concentration (T) in the presence of a great excess of cold hormone (2500.10^-9 M). The intersections of the straight line I50 and the curves enabled the concentrations of the cold reference hormone (CH) and of the cold product tested (CX) to be evaluated which inhibited by 50% the bonding of the tritiated hormone on the receptor. The relative liaison affinity (RAL) of the product tested is determined by the equation: [formula] The following results were obtained;

[1] = incubation time at 0° C.: 1 hour
[2] = incubation time at 0° C.: 24 hours

Compound | relative liaison affinity (RLA) [1] | relative liaison affinity (RLA) [2]
C#C[C@]12CCC(=O)C=C1CC[C@@H]1[C@@H]2CC[C@@]2(C)[C@H]1CC[C@@]21CCC(=O)O1 [Example 1, Gamma-lactone of 10β-ethynyl-17β-hydroxy-3-oxo-19-nor-17α-Δ^4-pregnen 21-carboxylic acid] | 125 | 65
CC#C[C@]12CCC(=O)C=C1CC[C@@H]1[C@@H]2CC[C@@]2(C)[C@H]1CC[C@@]21CCC(=O)O1 [Example 3, γ-lactone of 17β-hydroxy-3-oxo-10β-(1-propynyl)-19-nor-17α-Δ^4-pregnene-21-carboxylic acid] | 50 | 43
